Source: the supplement of paper PMC4862054

Assays:
Conditions in all cases: incubation time: 72 h
BT-549 [1] = assay: normalised viability (% of control), CellTiter-Blue; higher = more viable cells (about 100 = DMSO control)
Procedure, shortened: (§1)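 Seeded at 20 µl suspension per well onto compound-loaded 384-well plates, breast cancer cell lines were incubated 72 h. CellTiter-Blue fluorescence at 560/590 nm was then read, with each plate normalised to vehicle (100) and a positive kill control (0). Normalised viability is reported at a single listed concentration of the series.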

CAL-148 [2] = assay: as above
Procedure, shortened: as §1

MDA-MB-453 [3] = assay: as above
Procedure, shortened: as §1

MFM-223 [4] = assay: as above
Procedure, shortened: as §1

BT-474 = assay: as above
Procedure, shortened: as §1

BT-549 [5] = assay: as above; remark: listed apart in the source
Procedure, shortened: as §1

CAL-120 [6] = assay: as above
Procedure, shortened: as §1

CAL-148 [7] = assay: as above; remark: listed apart in the source
Procedure, shortened: as §1

CAL-51 = assay: as above
Procedure, shortened: as §1

CAL-85-1 = assay: as above
Procedure, shortened: as §1

DU-4475 = assay: as above
Procedure, shortened: as §1

HCC1143 = assay: as above
Procedure, shortened: as §1

HCC1599 = assay: as above
Procedure, shortened: as §1

HCC1937 = assay: as above
Procedure, shortened: as §1

HDQ-P1 = assay: as above
Procedure, shortened: as §1

Hs578T = assay: as above
Procedure, shortened: as §1

MDA-MB-231 = assay: as above
Procedure, shortened: as §1

MDA-MB-436 = assay: as above
Procedure, shortened: as §1

MDA-MB-453 [8] = assay: as above; remark: listed apart in the source
Procedure, shortened: as §1

MDA-MB-468 = assay: as above
Procedure, shortened: as §1

MFM-223 [9] = assay: as above; remark: listed apart in the source
Procedure, shortened: as §1

SK-BR-3 = assay: as above
Procedure, shortened: as §1

CAL-120 [10] = assay: drug sensitivity score (DSS), CellTox Green (DSS (AUC-based score)); higher = stronger drug effect (viability inhibition or cytotoxicity); extreme values may be limits of the assay
Procedure, shortened: (§2)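 Normalisation on every plate relied on 0.1 % DMSO and a positive kill control. The plates, 384-well format, held compound at 5 concentrations 10-fold apart across a compound-specific 10,000-fold range, and breast cancer cell lines in 20 µl suspension were incubated on them for 72 h before CellTox Green and then CellTiter-Glo readings. The drug sensitivity score derives from the area under the fitted dose-response curve.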

CAL-148 [11] = assay: as above
Procedure, shortened: as §2

COc1cc2nccc(Oc3ccc(NC(=O)C4(C(=O)Nc5ccc(F)cc5)CC4)cc3)c2cc1OC [Cabozantinib]
Conditions	normalised viability [%]
BT-474, 1 nM	125
BT-474, 100 nM	119
BT-474, 1000 nM	127
BT-549 [1], 10 nM	104
BT-549 [5], 1 nM	96.3
BT-549 [5], 100 nM	108
BT-549 [5], 1000 nM	101
CAL-51, 0.3 nM	109
CAL-51, 3 nM	106
CAL-51, 10 nM	97.8
CAL-85-1, 0.3 nM	89.2
CAL-85-1, 3 nM	87.5
CAL-85-1, 10 nM	88.9
CAL-120 [6], 1 nM	85.5
CAL-120 [6], 100 nM	77.8
CAL-120 [6], 1000 nM	86.5
CAL-148 [2], 1 nM	98.6
CAL-148 [7], 0.3 nM	94.5
CAL-148 [7], 3 nM	103
CAL-148 [7], 10 nM	94.2
DU-4475, 0.3 nM	90.4
DU-4475, 3 nM	78
DU-4475, 10 nM	88.4
HCC1143, 1 nM	78.9
HCC1143, 100 nM	87.9
HCC1143, 1000 nM	85.5
HCC1599, 1 nM	91.8
HCC1599, 100 nM	88.6
HCC1599, 1000 nM	74.6
HCC1937, 1 nM	98
HCC1937, 100 nM	87.5
HCC1937, 1000 nM	100
HDQ-P1, 0.3 nM	97.7
HDQ-P1, 3 nM	93.7
HDQ-P1, 10 nM	112
Hs578T, 1 nM	128
Hs578T, 100 nM	102
Hs578T, 1000 nM	111
MDA-MB-231, 1 nM	86.4
MDA-MB-231, 100 nM	94.1
MDA-MB-231, 1000 nM	87.7
MDA-MB-436, 1 nM	110
MDA-MB-436, 100 nM	102
MDA-MB-436, 1000 nM	97.3
MDA-MB-453 [3], 1 nM	98.5
MDA-MB-453 [8], 0.3 nM	111
MDA-MB-453 [8], 3 nM	96.9
MDA-MB-453 [8], 10 nM	108
MDA-MB-468, 1 nM	110
MDA-MB-468, 100 nM	106
MDA-MB-468, 1000 nM	101
MFM-223 [4], 10 nM	93.5
MFM-223 [9], 1 nM	88.5
MFM-223 [9], 100 nM	84
MFM-223 [9], 1000 nM	53.7
SK-BR-3, 1 nM	115
SK-BR-3, 100 nM	110
SK-BR-3, 1000 nM	109

Conditions	drug sensitivity score
CAL-120 [10]	0
CAL-148 [11]	0

N.N.[Cl][Pt][Cl] [Cisplatin]
Conditions	normalised viability [%]
BT-474, 10 nM	115
BT-474, 1000 nM	122
BT-474, 10000 nM	135
BT-549 [1], 100 nM	105
BT-549 [5], 10 nM	87.5
BT-549 [5], 1000 nM	87.6
BT-549 [5], 10000 nM	88.8
CAL-51, 3 nM	107
CAL-51, 30 nM	97.9
CAL-51, 100 nM	109
CAL-85-1, 3 nM	96.2
CAL-85-1, 30 nM	87.7
CAL-85-1, 100 nM	95.7
CAL-120 [6], 10 nM	90.3
CAL-120 [6], 1000 nM	93.3
CAL-120 [6], 10000 nM	102
CAL-148 [2], 10 nM	94.8
CAL-148 [7], 3 nM	92.1
CAL-148 [7], 30 nM	102
CAL-148 [7], 100 nM	103
DU-4475, 3 nM	105
DU-4475, 30 nM	116
DU-4475, 100 nM	88.8
HCC1143, 10 nM	88.2
HCC1143, 1000 nM	89.3
HCC1143, 10000 nM	89.2
HCC1599, 10 nM	100
HCC1599, 1000 nM	93.4
HCC1599, 10000 nM	86.7
HCC1937, 10 nM	87
HCC1937, 1000 nM	106
HCC1937, 10000 nM	105
HDQ-P1, 3 nM	116
HDQ-P1, 30 nM	118
HDQ-P1, 100 nM	111
Hs578T, 10 nM	100
Hs578T, 1000 nM	139
Hs578T, 10000 nM	122
MDA-MB-231, 10 nM	99.2
MDA-MB-231, 1000 nM	101
MDA-MB-231, 10000 nM	104
MDA-MB-436, 10 nM	102
MDA-MB-436, 1000 nM	87.1
MDA-MB-436, 10000 nM	94.8
MDA-MB-453 [3], 10 nM	111
MDA-MB-453 [8], 3 nM	124
MDA-MB-453 [8], 30 nM	117
MDA-MB-453 [8], 100 nM	110
MDA-MB-468, 10 nM	101
MDA-MB-468, 1000 nM	101
MDA-MB-468, 10000 nM	106
MFM-223 [4], 100 nM	93.7
MFM-223 [9], 10 nM	88.5
MFM-223 [9], 1000 nM	91
MFM-223 [9], 10000 nM	99.1
SK-BR-3, 10 nM	99.1
SK-BR-3, 1000 nM	105
SK-BR-3, 10000 nM	111

Conditions	drug sensitivity score
CAL-120 [10]	0
CAL-148 [11]	0

C[C@@H](Oc1cc(-c2cnn(C3CCNCC3)c2)cnc1N)c1c(Cl)ccc(F)c1Cl [Crizotinib]
Conditions	normalised viability [%]
BT-474, 10 nM	94.2
BT-474, 1000 nM	93.3
BT-474, 10000 nM	10.3
BT-549 [1], 100 nM	95.2
BT-549 [5], 10 nM	107
BT-549 [5], 1000 nM	107
BT-549 [5], 10000 nM	30.1
CAL-51, 3 nM	107
CAL-51, 30 nM	107
CAL-51, 100 nM	108
CAL-85-1, 3 nM	91.7
CAL-85-1, 30 nM	91
CAL-85-1, 100 nM	94
CAL-120 [6], 10 nM	90.3
CAL-120 [6], 1000 nM	83.4
CAL-120 [6], 10000 nM	9.87
CAL-148 [2], 10 nM	105
CAL-148 [7], 3 nM	91.8
CAL-148 [7], 30 nM	94.1
CAL-148 [7], 100 nM	100
DU-4475, 3 nM	94.9
DU-4475, 30 nM	98.8
DU-4475, 100 nM	96.2
HCC1143, 10 nM	87.8
HCC1143, 1000 nM	96.1
HCC1143, 10000 nM	42.5
HCC1599, 10 nM	105
HCC1599, 1000 nM	99.1
HCC1599, 10000 nM	60.8
HCC1937, 10 nM	38.1
HCC1937, 1000 nM	89.2
HCC1937, 10000 nM	7.72
HDQ-P1, 3 nM	88.4
HDQ-P1, 30 nM	91.3
HDQ-P1, 100 nM	88.6
Hs578T, 10 nM	102
Hs578T, 1000 nM	103
Hs578T, 10000 nM	34
MDA-MB-231, 10 nM	89.8
MDA-MB-231, 1000 nM	63.5
MDA-MB-231, 10000 nM	0.88
MDA-MB-436, 10 nM	71.3
MDA-MB-436, 1000 nM	17.1
MDA-MB-436, 10000 nM	8.24
MDA-MB-453 [3], 10 nM	94.2
MDA-MB-453 [8], 3 nM	95.2
MDA-MB-453 [8], 30 nM	81.3
MDA-MB-453 [8], 100 nM	87.6
MDA-MB-468, 10 nM	107
MDA-MB-468, 1000 nM	95.3
MDA-MB-468, 10000 nM	8.61
MFM-223 [4], 100 nM	83.4
MFM-223 [9], 10 nM	75.5
MFM-223 [9], 1000 nM	73
MFM-223 [9], 10000 nM	34.1
SK-BR-3, 10 nM	97.2
SK-BR-3, 1000 nM	110
SK-BR-3, 10000 nM	5.81

Conditions	drug sensitivity score
CAL-120 [10]	0
CAL-148 [11]	0
